# Laboratory results: PubChem BioAssay AID652232 (The Scripps Research Institute Molecular Screening Center, 2013)
# Active and inactive are the calls of the source.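 How the source made its calls: active means blocks protein phosphatase 1 activity with an IC50 half-maximal inhibitory concentration below 10 µM; inactive means IC50 of 10 µM or higher.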
# Target: Serine/threonine-protein phosphatase PP1-alpha catalytic subunit (Homo sapiens) (UniProt P62136)
# Experiment: PP1 phosphohistone dephosphorylation inhibitor potency, late-stage follow-up, biochemical, radiolabel, dose response, powder samples (AID 652232)
# Conditions: purified PP1alpha, 33P-phosphohistone dephosphorylation, scintillation
# Sequence of Serine/threonine-protein phosphatase PP1-alpha catalytic subunit (Homo sapiens) (P62136 whole entry, looked up): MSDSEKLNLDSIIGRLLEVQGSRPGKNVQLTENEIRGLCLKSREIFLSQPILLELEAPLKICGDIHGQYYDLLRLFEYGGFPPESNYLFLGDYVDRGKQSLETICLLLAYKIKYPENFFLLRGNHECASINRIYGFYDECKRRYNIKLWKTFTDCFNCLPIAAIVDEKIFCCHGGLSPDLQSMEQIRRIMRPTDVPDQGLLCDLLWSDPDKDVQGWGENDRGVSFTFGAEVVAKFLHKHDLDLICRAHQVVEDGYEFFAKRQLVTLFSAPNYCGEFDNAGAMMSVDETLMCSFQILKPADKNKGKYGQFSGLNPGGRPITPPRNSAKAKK
row,IC50,Compound
1,44.2 µM,CC(C)(C)OC(=O)N1CCN(C(c2ccccn2)c2cc(Cl)c3cccnc3c2O)CC1 (centres undefined)
2,inactive,CC1CCN(C(c2ccccn2)c2cc(Cl)c3cccnc3c2O)CC1 (centres undefined)
3,27 µM,Oc1c(C(c2ccccn2)N2CCC(Cc3ccccc3)CC2)cc(Cl)c2cccnc12 (centres undefined)
4,inactive,Oc1c(C(c2ccccn2)N2CCN(c3ccccc3F)CC2)cc(Cl)c2cccnc12 (centres undefined)
